Measurements: the Kinase Knowledgebase extract (Sharma et al. 2016)

What follows are molecules tested against MAPK14 (human) (UniProt Q16539) (assay: Inhibition of MAPK14 Kinase Activity).
Sequence of MAPK14 (human) (Q16539 whole entry, looked up): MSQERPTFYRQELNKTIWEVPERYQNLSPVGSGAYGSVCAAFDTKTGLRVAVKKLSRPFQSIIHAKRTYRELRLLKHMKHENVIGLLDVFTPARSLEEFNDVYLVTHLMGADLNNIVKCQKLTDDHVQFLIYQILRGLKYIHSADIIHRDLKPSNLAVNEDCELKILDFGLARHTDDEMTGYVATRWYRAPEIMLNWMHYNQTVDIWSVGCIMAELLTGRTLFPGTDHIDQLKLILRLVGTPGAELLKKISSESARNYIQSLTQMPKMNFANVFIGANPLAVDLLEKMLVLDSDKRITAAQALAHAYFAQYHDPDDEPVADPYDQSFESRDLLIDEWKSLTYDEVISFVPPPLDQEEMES

IC50, ≤ 10 µM:
CC(C)(C)OC(=O)Nc1cc(Cl)c(N2CC(C(O)c3ccc(F)cc3F)CCC2=O)c(Cl)c1 (stereo not drawn)
CC(C)(C)OC(=O)N(Cc1ccccn1)c1cc(Cl)c(N2CC(Cc3ccc(F)cc3F)CCC2=O)c(Cl)c1 (stereo not drawn)
O=C1CCC(Cc2ccc3ccccc3c2)CN1c1c(Cl)csc1Cl (stereo not drawn)
CC(=O)Nc1cc(Cl)c(N2CC(Cc3ccc(F)cc3F)SCC2=O)c(Cl)c1 (stereo not drawn)
Cc1nc[nH]c1CNc1cc(Cl)c(N2CC(Cc3ccccc3)CCC2=O)c(Cl)c1 (stereo not drawn)
O=C1CCC(Oc2ccc(F)cc2F)CN1c1c(Cl)ccc(CO)c1Cl (stereo not drawn)
O=C1CCC(Oc2ccc(F)cc2F)CN1c1c(Cl)cncc1Cl (stereo not drawn)
CC(=O)Nc1cnc(Cl)c(N2CC(Cc3ccc(F)cc3F)CCC2=O)c1Cl (stereo not drawn)
O=C1CSC(Cc2ccc(F)cc2)CN1c1c(Cl)cccc1Cl (stereo not drawn)
O=C1COC(Cc2ccc(F)cc2)CN1c1c(Cl)cccc1Cl (stereo not drawn)
Cc1ccc(CC2CCC(=O)N(c3c(Cl)csc3Cl)C2)cc1 (stereo not drawn)
CN1CCN(c2cc(Cl)c(N3CC(Cc4ccc(F)cc4F)CCC3=O)c(Cl)c2)CC1 (stereo not drawn)
O=C1CCC(Cc2ccc(F)cc2)CN1c1c(Cl)ccnc1Cl (stereo not drawn)
O=C1OCC(Cc2ccc(F)cc2F)CN1c1c(Cl)ccc(CO)c1Cl (stereo not drawn)
CN1CC(Cc2ccc(F)cc2F)CN(c2c(Cl)cccc2Cl)C1=O (stereo not drawn)
O=C1CCC(Sc2ccc(Cl)cc2)CN1c1c(Cl)cccc1Cl (stereo not drawn)
O=C1OCC(Cc2ccc(F)cc2)CN1c1c(Cl)cccc1Cl (stereo not drawn)
O=C1CCC(Sc2ccc3ccccc3c2)CN1c1c(Cl)ccnc1Cl (stereo not drawn)
Cc1cc(C)cc(CC2CCC(=O)N(c3c(Cl)csc3Cl)C2)c1 (stereo not drawn)
Nc1cnc(Cl)c(N2CC(Oc3ccc(F)cc3F)CCC2=O)c1Cl (stereo not drawn)
O=C1CCC(Sc2ccc(F)cc2F)CN1c1c(Cl)cc(CO)nc1Cl (stereo not drawn)
O=C1OCC(Cc2ccccc2Cl)CN1c1c(Cl)cccc1Cl (stereo not drawn)
COc1ccccc1CC1CN(c2c(Cl)cccc2Cl)C(=O)CS1 (stereo not drawn)
O=Cc1ccccc1CC1CCC(=O)N(c2c(Cl)cccc2Cl)C1 (stereo not drawn)
O=C1CCC(Cc2ccc(F)cc2F)CN1c1cc(NCCO)ccc1Cl (stereo not drawn)
O=C1CCC(Oc2ccc(F)cc2F)CN1c1c(Cl)cc(CO)cc1Cl (stereo not drawn)
O=C1CCC(Oc2ccc(F)cc2F)CN1C1C(Cl)CCC(O)C1Cl (stereo not drawn)
CC(C)(C)C(=O)Nc1cc(Cl)c(N2CC(Cc3ccc(F)cc3F)CCC2=O)c(Cl)c1 (stereo not drawn)
Cc1ccc(SC2CCC(=O)N(c3c(Cl)csc3Cl)C2)cc1 (stereo not drawn)
O=C(Cc1ccccc1)Nc1sc(Cl)c(N2CC(Cc3ccc(F)cc3F)CCC2=O)c1Cl (stereo not drawn)
O=C1CCC(Cc2cccc3ccccc23)CN1c1c(Cl)csc1Cl (stereo not drawn)
O=C1CCC(Cc2cccc3ccccc23)CN1c1c(Cl)cccc1Cl (stereo not drawn)
O=C(Cc1ccccc1)NC1CC(Cl)C(N2CC(Cc3ccc(F)cc3F)CCC2=O)C(Cl)C1 (stereo not drawn)
O=C1CCC(Cc2ccc(Cl)cc2Cl)CN1c1c(Cl)cccc1Cl (stereo not drawn)
CNc1ccc(Cl)c(N2CC(Cc3ccc(F)cc3F)CSC2=O)c1Cl (stereo not drawn)
CN1CC(Cc2ccccc2)CN(c2c(Cl)cccc2Cl)C1=O (stereo not drawn)
Cc1cc(C)cc(OC2CCC(=O)N(c3c(Cl)csc3Cl)C2)c1 (stereo not drawn)
O=C(Cc1ccccc1)Nc1cc(Cl)c(N2CC(Cc3ccc(F)cc3F)SCC2=O)c(Cl)c1 (stereo not drawn)
C[C@@H]1C[C@H](Cc2ccc(F)cc2F)CN(c2c(Cl)cc(Br)cc2Cl)C1=O
CC[C@H]1C[C@@H](Cc2ccc(F)cc2F)CN(c2c(Cl)cccc2Cl)C1=O
O=C1CCC(Sc2cccc3ccccc23)CN1c1c(Cl)cccc1Cl (stereo not drawn)
COC(=O)/C=C/c1ccccc1CC1CCC(=O)N(c2c(Cl)cccc2Cl)C1 (stereo not drawn)
CC(=O)Nc1sc(Cl)c(N2CC(Sc3ccc(F)cc3F)CCC2=O)c1Cl (stereo not drawn)
CC(=O)N1CCC(Nc2cc(Cl)c(N3CC(Cc4ccc(F)cc4F)CCC3=O)c(Cl)c2)CC1 (stereo not drawn)
O=C1CCC(Sc2ccc(F)cc2F)CN1C1C(Cl)CC(O)CC1Cl (stereo not drawn)
NCc1ccccc1CC1CCC(=O)N(c2c(Cl)cccc2Cl)C1 (stereo not drawn)
O=C1CCC(Oc2ccc(F)cc2F)CN1c1c(Cl)ccnc1Cl (stereo not drawn)
Cc1ccc(SC2CCC(=O)N(c3c(Cl)cccc3Cl)C2)c(C)c1 (stereo not drawn)
N#Cc1ccccc1CC1CCC(=O)N(c2c(Cl)cccc2Cl)C1 (stereo not drawn)
CC[C@@H]1C[C@@H](Cc2ccc(F)cc2F)CN(c2c(Cl)cccc2Cl)C1=O
Cc1cc(CCCCCO)cc(C)c1N1CC(Cc2ccc(F)cc2F)CCC1=O (stereo not drawn)
O=C(Cc1ccccc1)Nc1cnc(Cl)c(N2CC(Sc3ccc(F)cc3F)CCC2=O)c1Cl (stereo not drawn)
O=C1CCC(Cc2ccc(F)cc2F)CN1c1nccs1 (stereo not drawn)
O=C1CCC(Cc2ccc(F)cc2F)CN1C1C(Cl)CCCC1Cl (stereo not drawn)
O=C1CCC(Oc2cc(Cl)cc(Cl)c2)CN1C1C(Cl)CCCC1Cl (stereo not drawn)
O=C1NCC(Cc2ccc(F)cc2F)CN1c1c(Cl)ccc(O)c1Cl (stereo not drawn)
CNc1ccc(Cl)c(N2CC(Cc3ccc(F)cc3F)OCC2=O)c1Cl (stereo not drawn)
Cc1ccc(CC2CNC(=O)N(c3c(Cl)cccc3Cl)C2)cc1 (stereo not drawn)
Cc1cccc(C)c1N1CC(Cc2ccccc2OCC(=O)O)CCC1=O (stereo not drawn)
COc1ccccc1SC1CCC(=O)N(c2c(Cl)cncc2Cl)C1 (stereo not drawn)
CN1CC(=O)N(c2c(Cl)cccc2Cl)CC1Cc1ccc(F)cc1F (stereo not drawn)
O=C1CCC(Sc2ccc(F)cc2)CN1c1c(Cl)cccc1Cl (stereo not drawn)
Cc1cc(C)cc(SC2CCC(=O)N(c3c(Cl)ccnc3Cl)C2)c1 (stereo not drawn)
O=C1CCC(Sc2ccc(F)cc2)CN1c1c(Cl)csc1Cl (stereo not drawn)
Cc1ccccc1CC1CNC(=O)N(c2c(Cl)cccc2Cl)C1 (stereo not drawn)
O=C(O)CCCC(=O)Nc1cc(Cl)c(N2CC(Cc3ccc(F)cc3F)CCC2=O)c(Cl)c1 (stereo not drawn)
COc1ccc(CC2CSC(=O)N(c3c(Cl)cccc3Cl)C2)cc1 (stereo not drawn)
CN(C)CCNc1cc(Cl)c(N2CC(Cc3ccccc3F)CCC2=O)c(Cl)c1 (stereo not drawn)
O=C1CCC(Sc2ccc(F)cc2F)CN1c1c(Cl)ncc(CO)c1Cl (stereo not drawn)
CN1CC(Cc2ccc(Cl)cc2)CN(c2c(Cl)cccc2Cl)C1=O (stereo not drawn)
O=C1CCC(Oc2ccc(Cl)cc2)CN1c1c(Cl)ccnc1Cl (stereo not drawn)
O=C1CSC(Cc2ccc(F)cc2F)CN1c1c(Cl)ccc(CO)c1Cl (stereo not drawn)
O=C1CSC(Cc2ccc(Cl)cc2)CN1c1c(Cl)cccc1Cl (stereo not drawn)
Cc1cc(C)cc(CC2CCC(=O)N(c3c(Cl)cncc3Cl)C2)c1 (stereo not drawn)
Cc1cc(C)cc(CC2CCC(=O)N(C3C(Cl)CCCC3Cl)C2)c1 (stereo not drawn)
CN1CC(Cc2ccc(F)cc2)CN(c2c(Cl)cccc2Cl)C1=O (stereo not drawn)
O=C1CCC(Cc2ccccc2F)CN1c1c(Cl)ccnc1Cl (stereo not drawn)
O=C1CCC(Sc2ccc3ccccc3c2)CN1c1c(Cl)csc1Cl (stereo not drawn)
O=C1CCC(Oc2ccc(F)cc2F)CN1c1c(Cl)ncc(CO)c1Cl (stereo not drawn)
O=C(NCc1ccccc1CC1CCC(=O)N(c2c(Cl)cccc2Cl)C1)Nc1ccccc1C(F)(F)F (stereo not drawn)
O=C1CCC(Cc2ccc3ccccc3c2)CN1c1c(Cl)ccnc1Cl (stereo not drawn)
O=C1CCC(Oc2ccc3ccccc3c2)CN1c1c(Cl)cncc1Cl (stereo not drawn)
Cc1cc(C#CCCN2CCN(C)CC2)cc(C)c1N1CC(Cc2ccc(F)cc2F)CCC1=O (stereo not drawn)
COCC1CC(Cc2ccc(F)cc2F)CN(c2c(Cl)cccc2Cl)C1=O (stereo not drawn)
CC(O)(c1ccc(F)cc1F)C1CCC(=O)N(c2c(Cl)cccc2Cl)C1 (stereo not drawn)
Nc1cc(Cl)c(N2CC(Cc3ccc(F)cc3F)OCC2=O)c(Cl)c1 (stereo not drawn)
O=C(Cc1ccccc1)Nc1ccc(Cl)c(N2CC(Cc3ccc(F)cc3F)COC2=O)c1Cl (stereo not drawn)
Cc1cc(C(=O)N2CCOCC2)cc(C)c1N1CC(Cc2ccc(F)cc2F)CCC1=O (stereo not drawn)
CC(=O)Nc1cc(Cl)c(N2CC(Cc3ccc(F)cc3F)COC2=O)c(Cl)c1 (stereo not drawn)
Cc1ccc(OC2CCC(=O)N(c3c(Cl)cncc3Cl)C2)cc1 (stereo not drawn)
O=C1CCC(Sc2cc(F)cc(F)c2)CN1c1c(Cl)cccc1Cl (stereo not drawn)
O=C1CCC(Cc2ccc(F)cc2F)CN1c1c(Cl)cc(N2C(=O)CCCC2=O)cc1Cl (stereo not drawn)
O=C1CCC(Oc2ccc(Cl)cc2Cl)CN1c1c(Cl)cccc1Cl (stereo not drawn)
Nc1cc(Cl)c(N2CC(Cc3ccc(F)cc3F)COC2=O)c(Cl)c1 (stereo not drawn)
O=C1CCC(Sc2ccccc2Cl)CN1c1c(Cl)cncc1Cl (stereo not drawn)
O=C1CCC(Oc2ccc(F)cc2F)CN1c1c(Cl)cnc(CO)c1Cl (stereo not drawn)
O=C1CCC(Sc2ccc(Cl)cc2Cl)CN1c1c(Cl)cccc1Cl (stereo not drawn)
O=C1CCC(Cc2cc(F)cc(F)c2)CN1C1C(Cl)CCCC1Cl (stereo not drawn)
